From US20110097338A1, “Use of Substances for Sensitization of Tumor Cells to Radiation and/or Chemotherapy” (TECHNISCHE UNIVERSITAET DRESDEN, priority 2008, published 2011)
d = 2'-deoxy (DNA); r = 2'-OH (RNA)

Legend:
Format in all cases: cell-based, human
PINCH-1 protein = assay: Western Blot of PINCH-1 knock-down after siRNA transfection; settings: HCT-116 and DLD-1 cells; 20 nmol/l siRNA with oligo fectamine; lysates 48 h after transfection
Experimental: (§1) Human colorectal tumor cell lines of the type HCT-116 (ATCC No. CCL-247) and of the type DLD-1 (ATCC No. CCL-221) were transfected with PINCH-1-siRNA of the SEQ ID No. 5. For this purpose, 3×10^5 tumor cells on 6-well plates (BD, Heidelberg) in Dulbecco's Modified Eagle (DMEM; Gibco, Karlsruhe) with Glutamax-I (L-alanyl-L-glutamine), 10% serum (FCS; Biochrom, Berlin) and 1% of non-essential amino acids (Gibco, Karlsruhe) were seeded and cultured at 37° C. and 7% CO2. After 24 h the cells were washed once with Opti-MEM I (Invitrogen, Karlsruhe) and transfected with oligo fectamine (0.2%) and 20 nmol/l PINCH-1-siRNA for 8 h without serum in Opti-MEM I. Afterwards 10% serum was added and the cells incubated for another 16 h at 37° C. and 7% CO2. After a total of 24 h after transfection the cells were washed with phosphate-buffered saline solution (PBS; PAA, Cölbe) and removed with trypsin/EDTA solution. […] Of this portion, protein lysates were produced for examining knock-downs in the Western Blot, the proteins were separated by means of SDS PAGE, transferred onto a nitrocellulose membrane and detected with a mouse-anti-PINCH-1-antibody (clone 49; BD Heidelberg) as well as a peroxidase-coupled goat-anti-mouse-secondary antibody and the ECL system (GE Healthcare, Munich).

HCT-116 = assay: Clonogenic survival after radiation (colony forming assay), siRNA transfection; settings: siRNA 20 nmol/l, irradiated 48 h later with 0-6 Gy
Experimental: as §1

DLD-1 = assay: as above; settings: siRNA 20 nmol/l, irradiated 48 h later with 0-6 Gy
Experimental: as §1

“GCUAUAUCUCAAAGCAGUUtt (GCUAUAUCUCAAAGCAGUUTT; siRNA; sugars from the 5' end r19 d2, backbone not given here) [PINCH-1-siRNA of the SEQ ID No. 5]” was tested, and the “formation of PINCH-1 protein / PINCH-1 expression (Western Blot, FIG. 3)” value (PINCH-1 protein) was “prevented”, the “survival rate after radiation vs. control-siRNA (FIG. 4)” value (HCT-116) was “lowered significantly” and the “survival rate after radiation vs. control-siRNA (FIG. 4)” value (DLD-1) was “lowered significantly”.
